Measurements reported in patent US12162893B2 (Erasca, Inc., priority 2020, dated 2024).

Biological target: T1, mutant G12C K-RAS (Homo sapiens, UniProt P01116, G12C)
T1 construct: made in house; host or cells: E. coli BL21
Assay: covalent adduct formation (CAF) with mutant G12C K-RAS
Assay type: binding
Design: CAF: unit not given here
Settings: for % CAF @ 10 μM,1 h: Table 6
Description: Embodiments disclosed herein are further illustrated by the following examples in Tables 1-4 and the Examples hereinbelow. The Tables indicate the compound number, structure, the observed mass spectral molecular weight peak, and covalent adduct formation (CAF) with a mutant G12C K-RAS after 60 minutes at a concentration of 10 micromolar.

C=CC(=O)N1C[C@H](C)N(c2nc(=O)n3c4c(c(-c5ccc(F)cc5F)c(Cl)cc24)OC[C@H]3CCCN2CC(C(=O)NC3CC3)C2)C[C@H]1C [Example 273, 1-(3-((3R)-7-((2S,5R)-4-acryloyl-2,5-dimethylpiperazin-1-yl)-9-chloro-10-(2,4-difluorophenyl)-5-oxo-2,3-dihydro-5H-[1,4]oxazino[2,3,4-ij]quinazolin-3-yl)propyl)-N-cyclopropylazetidine-3-carboxamide]
% CAF @ 10 μM,1 h: 71.8%

C=CC(=O)N1CCN(c2nc(=O)n3c4c(c(-c5c(O)cccc5F)c(Cl)cc24)OC[C@H]3CN2CCC(F)(F)C2)[C@@H](C)C1 (atropisomer, axis not shown) [Example 230, (3R,10S)-7-((S)-4-acryloyl-2-methylpiperazin-1-yl)-9-chloro-3-((3,3-difluoropyrrolidin-1-yl)methyl)-10-(2-fluoro-6-hydroxyphenyl)-2,3-dihydro-5H-[1,4]oxazino[2,3,4-ij]quinazolin-5-one]
% CAF @ 10 μM,1 h: 75.9%

C=CC(=O)N1CCN(c2cc(=O)n3c4c(c(-c5c(C)ccc6[nH]ncc56)ccc24)CCC3)CC1 [Example 46, 1-(4-acryloylpiperazin-1-yl)-8-(5-methyl-1H-indazol-4-yl)-6,7-dihydropyrido[3,2,1-ij]quinolin-3(5H)-one]
CAF (Table 3, Pyridone Core-Morpholine Unsubstituted, after 60 minutes at 10 micromolar): 12

C=CC(=O)N1C[C@H](C)N(c2nc(=O)n3c4c(c(-c5ccc(F)cc5F)c(Cl)cc24)OC[C@H]3CO[C@@H]2CCN(C)C2)C[C@H]1C [Example 302, (3R)-7-((2S,5R)-4-acryloyl-2,5-dimethylpiperazin-1-yl)-9-chloro-10-(2,4-difluorophenyl)-3-((((R)-1-methylpyrrolidin-3-yl)oxy)methyl)-2,3-dihydro-5H-[1,4]oxazino[2,3,4-ij]quinazolin-5-one]
% CAF @ 10 μM,1 h: 45.8%

C=CC(=O)N1C[C@H](C)N(c2nc(=O)n3c4c(c(-c5cc(Cl)ccc5F)c(Cl)cc24)OC[C@H]3CN2CCC(F)(F)C2)C[C@H]1C [Example 206, (3R)-7-((2S,5R)-4-acryloyl-2,5-dimethylpiperazin-1-yl)-9-chloro-10-(5-chloro-2-fluorophenyl)-3-((3,3-difluoropyrrolidin-1-yl)methyl)-2,3-dihydro-5H-[1,4]oxazino[2,3,4-ij]quinazolin-5-one]
% CAF @ 10 μM,1 h: 10.7%

C=CC(=O)N1C[C@H](C)N(c2nc(=O)n3c4c(c(-c5c(C)ccc6[nH]ncc56)c(Cl)cc24)OC[C@H]3CCCN2C[C@@H]3C[C@H]2CO3)C[C@H]1C (atropisomer, axis not shown) [Example 325, (3R,10S)-3-(3-((1S,4S)-2-oxa-5-azabicyclo[2.2.1]heptan-5-yl)propyl)-7-((2S,5R)-4-acryloyl-2,5-dimethylpiperazin-1-yl)-9-chloro-10-(5-methyl-1H-indazol-4-yl)-2,3-dihydro-5H-[1,4]oxazino[2,3,4-ij]quinazolin-5-one]
% CAF @ 10 μM,1 h: 0%

C=CC(=O)N1C[C@H](C)N(c2nc(=O)n3c4c(c(-c5ccc(F)cc5F)c(Cl)cc24)OC[C@@H]3COC2CCN(C)C2)C[C@H]1C (stereo in doubt) [Example 336, (3S)-7-((2S,5R)-4-acryloyl-2,5-dimethylpiperazin-1-yl)-9-chloro-10-(2,4-difluorophenyl)-3-((((S)-1-methylpyrrolidin-3-yl)oxy)methyl)-2H-[1,4]oxazino[2,3,4-ij]quinazolin-5(3H)-one]
% CAF @ 10 μM,1 h: 79%

C=CC(=O)N1C[C@H](C)N(c2nc(=O)n3c4c(c(-c5ccc(F)cc5F)c(Cl)cc24)OC[C@H]3Cn2cccn2)C[C@H]1C [Example 234, (3R)-3-((1H-pyrazol-1-yl)methyl)-7-((2S,5R)-4-acryloyl-2,5-dimethylpiperazin-1-yl)-9-chloro-10-(2,4-difluorophenyl)-2H-[1,4]oxazino[2,3,4-ij]quinazolin-5(3H)-one]
% CAF @ 10 μM,1 h: 71.3%

C=CC(=O)N1C[C@H](C)N(c2nc(=O)n3c4c(c(-c5c(C)ccc6[nH]ncc56)c(Cl)cc24)OC[C@H]3Cn2cccn2)C[C@H]1C (atropisomer, axis not shown) [Example 320, (3R,10R)-3-((1H-pyrazol-1-yl)methyl)-7-((2S,5R)-4-acryloyl-2,5-dimethylpiperazin-1-yl)-9-chloro-10-(5-methyl-1H-indazol-4-yl)-2,3-dihydro-5H-[1,4]oxazino[2,3,4-ij]quinazolin-5-one]
% CAF @ 10 μM,1 h: 94.2%

C=CC(=O)N1CCN(c2nc(=O)n3c4c(c(-c5c(O)cccc5F)c(Cl)cc24)OC[C@@H]3CN2CCOCC2)[C@@H](C)C1 [Example 195, (3S,10R)-7-((S)-4-acryloyl-2-methylpiperazin-1-yl)-9-chloro-10-(2-fluoro-6-hydroxyphenyl)-3-(morpholinomethyl)-2,3-dihydro-5H-[1,4]oxazino[2,3,4-ij]quinazolin-5-one]
% CAF @ 10 μM,1 h: 0%

C=CC(=O)N1C[C@H](C)N(c2nc(=O)n3c4c(c(-c5ccc(F)cc5F)c(Cl)cc24)OCC3CN(C)C)C[C@H]1C (stereo partly drawn) [Example 35, 7-((2S,5R)-4-acryloyl-2,5-dimethylpiperazin-1-yl)-9-chloro-10-(2,4-difluorophenyl)-3-((dimethylamino)methyl)-2H-[1,4]oxazino[2,3,4-ij]quinazolin-5(3H)-one]
% CAF (60 min) (Table 2, Pyrimidone Core-Morpholine Substituted, after 60 minutes at 10 micromolar): 84.6%

C=CC(=O)N1C[C@H](C)N(c2nc(=O)n3c4c(c(-c5c(O)cccc5F)c(Cl)cc24)OC[C@@H]3Cn2cccn2)C[C@H]1C (atropisomer, axis not shown) [Example 244, (3S,10R)-3-((1H-pyrazol-1-yl)methyl)-7-((2S,5R)-4-acryloyl-2,5-dimethylpiperazin-1-yl)-9-chloro-10-(2-fluoro-6-hydroxyphenyl)-2H-[1,4]oxazino[2,3,4-ij]quinazolin-5(3H)-one]
% CAF @ 10 μM,1 h: 4.4%

C=CC(=O)N1C[C@H](C)N(c2nc(=O)n3c4c(c(-c5c(O)cccc5F)c(Cl)cc24)OC[C@@H]3CCCN2CCOCC2)C[C@H]1C (atropisomer, axis not shown) [Example 226, (3S,10S)-7-((2S,5R)-4-acryloyl-2,5-dimethylpiperazin-1-yl)-9-chloro-10-(2-fluoro-6-hydroxyphenyl)-3-(3-morpholinopropyl)-2,3-dihydro-5H-[1,4]oxazino[2,3,4-ij]quinazolin-5-one]
% CAF @ 10 μM,1 h: 97.8%

C=CC(=O)N1C[C@H](C)N(c2nc(=O)n3c4c(c(-c5c(O)cccc5F)c(Cl)cc24)OC[C@@H]3CN(C)CC(F)(F)F)C[C@H]1C (atropisomer, axis not shown) [Example 240, (3S,10S)-7-((2S,5R)-4-acryloyl-2,5-dimethylpiperazin-1-yl)-9-chloro-10-(2-fluoro-6-hydroxyphenyl)-3-((methyl(2,2,2-trifluoroethyl)amino)methyl)-2H-[1,4]oxazino[2,3,4-ij]quinazolin-5(3H)-one]
% CAF @ 10 μM,1 h: 82.1%

C=CC(=O)N1C[C@H](C)N(c2nc(=O)n3c4c(c(-c5cccc6ccccc56)c(Cl)cc24)OC[C@H]3CN2CCN(C)CC2)C[C@H]1C (atropisomer, axis not shown) [Example 294, (3R,10R)-7-((2S,5R)-4-acryloyl-2,5-dimethylpiperazin-1-yl)-9-chloro-3-((4-methylpiperazin-1-yl)methyl)-10-(naphthalen-1-yl)-2H-[1,4]oxazino[2,3,4-ij]quinazolin-5(3H)-one]
% CAF @ 10 μM,1 h: 75.2%

C=CC(=O)N1C[C@H](C)N(c2nc(=O)n3c4c(c(-c5c(O)cccc5F)c(Cl)cc24)OC[C@H]3CN(C)CC(F)(F)F)C[C@H]1C (atropisomer, axis not shown) [Example 241, (3R,10R)-7-((2S,5R)-4-acryloyl-2,5-dimethylpiperazin-1-yl)-9-chloro-10-(2-fluoro-6-hydroxyphenyl)-3-((methyl(2,2,2-trifluoroethyl)amino)methyl)-2H-[1,4]oxazino[2,3,4-ij]quinazolin-5(3H)-one]
% CAF @ 10 μM,1 h: 0%

C=CC(=O)N1C[C@H](C)N(c2nc(=O)n3c4c(c(-c5ccc(F)cc5F)c(Cl)cc24)OC[C@H]3CCCN2CC[C@H](OC)C2)C[C@H]1C [Example 334, (3R)-7-((2S,5R)-4-acryloyl-2,5-dimethylpiperazin-1-yl)-9-chloro-10-(2,4-difluorophenyl)-3-(3-((S)-3-methoxypyrrolidin-1-yl)propyl)-2,3-dihydro-5H-[1,4]oxazino[2,3,4-ij]quinazolin-5-one]
% CAF @ 10 μM,1 h: 84.6%

C=CC(=O)N1C[C@H](C)N(c2c(C#N)c(=O)n3c4c(c(-c5c(O)cccc5F)c(Cl)cc24)OC[C@@H]3CN(C)C)C[C@H]1C [Example 49, (3S)-7-((2S,5R)-4-acryloyl-2,5-dimethylpiperazin-1-yl)-9-chloro-3-((dimethylamino)methyl)-10-(2-fluoro-6-hydroxyphenyl)-5-oxo-3,5-dihydro-2H-[1,4]oxazino[2,3,4-ij]quinoline-6-carbonitrile]
% CAF (60 min) (Table 4, Pyridone Core-Morpholine Substituted, after 60 minutes at 10 micromolar): 0%

C=CC(=O)N1C[C@H](C)N(c2nc(=O)n3c4c(c(-c5ccc(F)cc5F)c(Cl)cc24)OC[C@H]3CCCN2CC3CCC(C2)O3)C[C@H]1C [Example 312, (3R)-3-(3-(8-oxa-3-azabicyclo[3.2.1]octan-3-yl)propyl)-7-((2S,5R)-4-acryloyl-2,5-dimethylpiperazin-1-yl)-9-chloro-10-(2,4-difluorophenyl)-2,3-dihydro-5H-[1,4]oxazino[2,3,4-ij]quinazolin-5-one]
% CAF @ 10 μM,1 h: 68.2%

C=CC(=O)N1C[C@H](C)N(c2nc(=O)n3c4c(c(-c5ccc(F)cc5F)c(Cl)cc24)OC[C@@H]3CN2CCN(C)CC2=O)C[C@H]1C [Example 274, (3S)-7-((2S,5R)-4-acryloyl-2,5-dimethylpiperazin-1-yl)-9-chloro-10-(2,4-difluorophenyl)-3-((4-methyl-2-oxopiperazin-1-yl)methyl)-2,3-dihydro-5H-[1,4]oxazino[2,3,4-ij]quinazolin-5-one]
% CAF @ 10 μM,1 h: 67%
